We go through 9 molecules from article PMC12116762, “Topobexin targets the Topoisomerase II ATPase domain for beta isoform-selective inhibition and anthracycline cardioprotection” (Nature Communications, 2025).

Molecules are shown by their SMILES.

Series [1] has as its system neonatal rat ventricular cardiomyocytes (NVCM). Nature of the series: Protection against DAU-induced cytotoxicity (LDH release) in NVCM. The class given is cell-based. The arrangement: key to Suppl.Fig.3 DAU-induced cytotoxicity (LDH release) in NVCM, mean of independent replicates / LDH release (DAU-induced cytotoxicity), mean of independent replicates: % of total LDH activity. Conditions: for minimal effective concentration: Rattus norvegicus, Cardiomyocyte, NVCM, protection against DAU 1.2 µM, n=4, read-out: LEC = lowest effective concentration. The procedure:
(§1) The protective effects of the BNS-22 and newly prepared compounds were evaluated using primary cultures of neonatal rat cardiomyocytes isolated in house as previously described. Hearts isolated from 1- to 3-day-old Wistar rats were minced in buffer (1.2 mM MgSO4 · 7H2O, 116 mM NaCl, 5.3 mM KCl, 1.13 mM NaH2PO4 · H2O, 20 mM 4-(2-hydroxyethyl)-1-piperazine ethanesulfonic acid (HEPES), glucose 1 mg/mL) on ice, then serially digested (20 min, six repetitions) at 37 °C with collagenase type II (60 U/mL, Gibco). After 2 h pre-plating in a 150 mm Petri dish per approximately 20 hearts to minimize non-myocyte contamination, cells were plated in 24-well gelatin-coated plates at a density of 400,000 cells per well. Cells were cultured at 37 °C and 5% CO2 in Dulbecco’s modified Eagle medium (DMEM)/ F12 culture medium supplemented with 10% horse serum, 5% fetal bovine serum (FBS), 20 mM sodium pyruvate, 50 U/mL penicillin, and 50 μg/mL streptomycin. Freshly isolated cells were left for 40 h to attach and form a culture of spontaneously beating cardiomyocytes, then the medium was changed to DMEM/F12 medium supplemented with 5% fetal bovine serum, 20 mM sodium pyruvate, 50 U/mL penicillin, and 50 μg/mL streptomycin. For the experiments, the medium was changed to serum- and pyruvate-free DMEM/F12 with 50 U/mL penicillin and 50 μg/mL streptomycin. Cardiomyocytes were pretreated with BNS-22 or new compounds for 3 h and then coincubated with DAU (1.2 µM) for another 3 h. After the DAU treatment period, the culture medium was exchanged for the drug-free DMEM/F12 with 50 U/mL penicillin and 50 μg/mL streptomycin for the 48 h follow-up. Experiments to determine the inherent toxicity of each compound studied follow the same schedule, only no DAU was added. Subsequently, the culture medium sample was taken from each well for evaluation of lactate dehydrogenase (LDH) activity. The total LDH activity of each sample for normalization was measured after 1 h of incubation at 37 °C in lysis buffer (0.1 M potassium phosphate, 1% Triton X-100, 1 mM dithiothreitol (DTT), 2 mM EDTA, pH 7.8, 15 min in RT). All samples were immediately analyzed in Tris HCl buffer (pH 8.9) containing 35 mM lactic acid and 5 mM NAD^+. The rate of NAD^+ reduction was monitored spectrophotometrically at 340 nm for 2 min. The slope of the linear region was calculated, and the results were expressed as a percentage of the total LDH. Each presented data point was obtained from distinct sample.

Series [2] has the same test system. The series can be described thus: Inherent toxicity (LDH release) in NVCM. The class given is cell-based. The arrangement: key to LDH release (inherent toxicity), mean of independent replicates: % of total LDH activity. Conditions: NVCM; for LDH release (inherent toxicity), mean of independent replicates: Suppl.Fig.4; for LTC = lowest toxic concentration: compound alone, n=4. The procedure:
as §1

`CCCCc1cc(=O)oc2c(C(=O)N3CCCc4ccccc43)c(OCCO)ccc12` [5d]: the “Suppl.Fig.3 DAU-induced cytotoxicity (LDH release) in NVCM, mean of independent replicates” value (“Suppl.Fig.3 DAU-induced cytotoxicity” below) is 44.6742 in series [1] (compound 0.01 µM + DAU 1.2 µM); 41.2776 in series [1] (compound 0.1 µM + DAU 1.2 µM); 35.4099 in series [1] (compound 1 µM + DAU 1.2 µM); 33.3492 in series [1] (compound 10 µM + DAU 1.2 µM); 35.9089 in series [1] (compound 30 µM + DAU 1.2 µM); 42.7736 in series [1] (compound 100 µM + DAU 1.2 µM). Moreover, the “LDH release (inherent toxicity), mean of independent replicates” value (from here on “LDH release (inherent toxicity), mean”) in series [2] (compound alone 0.01 µM) is reported as 16.4804; in series [2] (compound alone 0.1 µM), 15.5556; in series [2] (compound alone 1 µM) it was 15.5462; in series [2] (compound alone 10 µM) it was 19.8205; in series [2] (compound alone 30 µM) it was 25.0146; in series [2] (compound alone 100 µM) it was 27.0966.
As for `CCc1cc(=O)oc2c(C(=O)N3CCCc4ccccc43)c(OC)ccc12` [3b], the “Suppl.Fig.3 DAU-induced cytotoxicity” value in series [1] (compound 1 µM + DAU 1.2 µM) came to 33.4469; in series [1] (compound 3 µM + DAU 1.2 µM), 35.1015; in series [1] (compound 10 µM + DAU 1.2 µM), 31.9857. The “LTC = lowest toxic concentration” value in series [2] is > 10 µM. In addition, the results for the “LDH release (inherent toxicity), mean” value in series [2] (compound alone 1 µM), in series [2] (compound alone 3 µM) and in series [2] (compound alone 10 µM) were 16.0681, 15.619 and 15.3649, respectively.
For `Cc1cc(=O)oc2c(C(=O)N3CCCc4ccccc43)c(OCCO)ccc12` [5a], the minimal effective concentration in series [1] is 30 µM. Also, the “Suppl.Fig.3 DAU-induced cytotoxicity” value in series [1] (compound 1 µM + DAU 1.2 µM) was 47.2456; in series [1] (compound 10 µM + DAU 1.2 µM) it was 46.8582; in series [1] (compound 30 µM + DAU 1.2 µM) it was 41.4003; in series [1] (compound 100 µM + DAU 1.2 µM) it was 38.7405. In addition, the “LDH release (inherent toxicity), mean” value in series [2] (compound alone 1 µM) is on record as 12.9508; in series [2] (compound alone 10 µM), 15.8869; in series [2] (compound alone 30 µM), 14.1719; in series [2] (compound alone 100 µM) it was 15.685.
With `COc1ccc2c(C)cc(=O)oc2c1C(=O)N1CCCc2ccccc21` [3a], the “Suppl.Fig.3 DAU-induced cytotoxicity” value came to 38.7802 in series [1] (compound 1 µM + DAU 1.2 µM), 37.7536 in series [1] (compound 3 µM + DAU 1.2 µM) and 36.7927 in series [1] (compound 10 µM + DAU 1.2 µM). Further, in series [2], the “LTC = lowest toxic concentration” value is > 10 µM. Besides, the “LDH release (inherent toxicity), mean” value in series [2] (compound alone 1 µM) was 18.1168; in series [2] (compound alone 3 µM), 15.6047; in series [2] (compound alone 10 µM), 15.937.
On to `CCc1cc(=O)oc2c(C(=O)N3CCCc4ccccc43)c(O)ccc12` [2b], for which the results for the “Suppl.Fig.3 DAU-induced cytotoxicity” value in series [1] (compound 10 µM + DAU 1.2 µM), in series [1] (compound 30 µM + DAU 1.2 µM) and in series [1] (compound 100 µM + DAU 1.2 µM) were 31.7392, 34.9042 and 31.3386, respectively. The figures for the “LDH release (inherent toxicity), mean” value in series [2] (compound alone 10 µM), in series [2] (compound alone 30 µM) and in series [2] (compound alone 100 µM) were 17.3516, 18.0926 and 18.5764, respectively.
Take `CCCCc1cc(=O)oc2c(C(=O)N3CCCc4ccccc43)c(OC)cc(OC)c12` [1d]: the minimal effective concentration in series [1] turned out to be 1 µM. For the same molecule, the “Suppl.Fig.3 DAU-induced cytotoxicity” value was determined as 44.1431 in series [1] (compound 0.1 µM + DAU 1.2 µM); 30.0603 in series [1] (compound 1 µM + DAU 1.2 µM); 34.1459 in series [1] (compound 10 µM + DAU 1.2 µM); 74.3781 in series [1] (compound 30 µM + DAU 1.2 µM); 88.2455 in series [1] (compound 100 µM + DAU 1.2 µM). For the same molecule, the “LTC = lowest toxic concentration” value in series [2] worked out at 30 µM. Also, the “LDH release (inherent toxicity), mean” value in series [2] (compound alone 0.1 µM) came out at 14.3468; in series [2] (compound alone 1 µM), 13.6854; in series [2] (compound alone 10 µM) it was 20.4098; in series [2] (compound alone 30 µM), 50.8474; in series [2] (compound alone 100 µM) it was 76.157.
For the molecule `CCCCc1cc(=O)oc2c(C(=O)N3CCCc4ccccc43)c(OCCC)ccc12` [4d], the minimal effective concentration in series [1] amounted to 1 µM. Besides, the “Suppl.Fig.3 DAU-induced cytotoxicity” value was 36.4234 in series [1] (compound 0.01 µM + DAU 1.2 µM); 31.1377 in series [1] (compound 0.1 µM + DAU 1.2 µM); 25.022 in series [1] (compound 1 µM + DAU 1.2 µM); 40.2951 in series [1] (compound 10 µM + DAU 1.2 µM); 73.3675 in series [1] (compound 30 µM + DAU 1.2 µM); 78.9691 in series [1] (compound 100 µM + DAU 1.2 µM). In addition, the “LTC = lowest toxic concentration” value in series [2] is 10 µM. Also, the “LDH release (inherent toxicity), mean” value in series [2] (compound alone 0.01 µM) turned out to be 17.8445; in series [2] (compound alone 0.1 µM), 15.2686; in series [2] (compound alone 1 µM), 16.9179; in series [2] (compound alone 10 µM) it was 31.7424; in series [2] (compound alone 30 µM) it was 60.5761; in series [2] (compound alone 100 µM) it was 70.9323.
As for `CCCCc1cc(=O)oc2c(C(=O)N3CCCc4ccccc43)c(OC)ccc12` [3d], the minimal effective concentration in series [1] was found to be 1 µM. In addition, the “Suppl.Fig.3 DAU-induced cytotoxicity” value in series [1] (compound 0.01 µM + DAU 1.2 µM) amounted to 50.7769; in series [1] (compound 0.1 µM + DAU 1.2 µM), 40.2805; in series [1] (compound 1 µM + DAU 1.2 µM) it was 35.9225; in series [1] (compound 10 µM + DAU 1.2 µM), 25.0218; in series [1] (compound 30 µM + DAU 1.2 µM), 30.6397. Moreover, the “LTC = lowest toxic concentration” value in series [2] is > 30 µM. For the same molecule, the “LDH release (inherent toxicity), mean” value is 14.5175 in series [2] (compound alone 0.01 µM); 14.1948 in series [2] (compound alone 0.1 µM); 16.3261 in series [2] (compound alone 1 µM); 19.5649 in series [2] (compound alone 10 µM); 19.0356 in series [2] (compound alone 30 µM).
In the case of `CCCOc1ccc2c(CC)cc(=O)oc2c1C(=O)N1CCCc2ccccc21` [4b], the minimal effective concentration in series [1] is 0.1 µM. For the same molecule, the “Suppl.Fig.3 DAU-induced cytotoxicity” value in series [1] (compound 0.01 µM + DAU 1.2 µM) is on record as 47.614; in series [1] (compound 0.1 µM + DAU 1.2 µM), 43.0735; in series [1] (compound 1 µM + DAU 1.2 µM), 30.3899; in series [1] (compound 10 µM + DAU 1.2 µM), 27.961; in series [1] (compound 30 µM + DAU 1.2 µM) it was 25.8835; in series [1] (compound 100 µM + DAU 1.2 µM), 28.6308. For the same molecule, the “LDH release (inherent toxicity), mean” value in series [2] (compound alone 0.01 µM) is 14.7625; in series [2] (compound alone 0.1 µM), 14.2064; in series [2] (compound alone 1 µM) it was 13.8348; in series [2] (compound alone 10 µM) it was 17.7301; in series [2] (compound alone 30 µM), 17.7791; in series [2] (compound alone 100 µM), 17.3487.
